Laboratory results: PMC5042776 (Molecular Medicine Reports, 2016)
≈ marks a conversion by molar mass, not a printed value. Like-named read-outs stand apart in the source and are kept apart here. Marks after values point to notes of the source that are not given here.

What was measured:
[1] = tested on: influenza A/PR/8/34 virus (H1N1 subtype); assay: microbe, parasite or virus in culture; type: cell-based; details: for SI (H1N1): CC50/IC50; for IC50: Influenza A virus, H1N1|PR/8, MDCK, 72 h, read-out: IC50 (H1N1)
Cytotoxicity assay = type: cell-based, canine; details: dog, MDCK cells
[2] = tested on: A/shenzhen/203/2001 (H3N2 subtype); assay: microbe, parasite or virus in culture; type: cell-based, influenza A virus; details: for SI (H3N2): CC50/IC50; for IC50: Influenza A virus, H3N2, MDCK, 72 h, read-out: IC50 (H3N2)
influenza A virus (IAV) [3] = type: in vivo, ICR mice
[4] = tested on: serum IFN-β, IL-6, TNF-α, IL-1β; type: in vivo, ICR mice; details: after 5 days of treatment
[5] = tested on: Toll-like receptor 7 (TLR7) signaling pathway; type: in vivo, ICR mice
influenza A virus (IAV) [6] = assay: IAV-induced acute lung injury in mice; type: in vivo, ICR mice
[7] = 10 mg/kg intragastric once daily 5 days
[8] = 20 mg/kg intragastric once daily 5 days
[9] = 40 mg/kg intragastric once daily 5 days
[10] = 50 mg/kg intragastric once daily 5 days

SMILES: C=C1CCC[C@]2(C)C[C@]3(O)OC(=O)C(C)=C3C[C@@H]12 [Atractylenolide III, atractylenolide III]
- SI (H1N1) [1]: 7.8
- IC50 [1]: 24.4 µg/mL (≈ 98.3 µM)
- CC50 at 3 days (Cytotoxicity assay): 191 µg/mL (≈ 770 µM)
- SI (H3N2) [2]: 6.7
- IC50 [2]: 28.6 µg/mL (≈ 115 µM)

SMILES: C=C1CCC[C@]2(C)Cc3occ(C)c3C[C@@H]12 [Atractylon, atractylon]
- SI (H1N1) [1]: 29.4
- SI values relative to those of ribavirin ([1]; H1N1 and H3N2): approximately 3 fold
- IC50 [1]: 8.9 µg/mL (≈ 41.1 µM)
- CC50 at 3 days (Cytotoxicity assay): 261 µg/mL (≈ 1210 µM)
- Life prolong rate (influenza A virus (IAV) [3]; [7]): 17.7%
- MDD ± SD (mean day to death) (influenza A virus (IAV) [3]; [7]): 9.3±3.6 ^a day
- Survival rate (influenza A virus (IAV) [3]; [7]): 30.0%
- Survived/total (influenza A virus (IAV) [3]; [7]): 6/20
- Life prolong rate (influenza A virus (IAV) [3]; [8]): 41.8%
- MDD ± SD (mean day to death) (influenza A virus (IAV) [3]; [8]): 11.2±3.3 ^a day
- Survival rate (influenza A virus (IAV) [3]; [8]): 55.0%
- Survived/total (influenza A virus (IAV) [3]; [8]): 11/20
- Life prolong rate (influenza A virus (IAV) [3]; [9]): 57.0%
- MDD ± SD (mean day to death) (influenza A virus (IAV) [3]; [9]): 12.4±2.6 ^a day
- Survival rate (influenza A virus (IAV) [3]; [9]): 70.0%
- Survived/total (influenza A virus (IAV) [3]; [9]): 14/20
- IFN-β (serum) ([4]; 10 mg/kg): 25.8 ± 2.87 pg/mL
- IL-1β (serum) ([4]; 10 mg/kg): 17.2±1.35 ^b pg/ml
- IL-6 (serum) ([4]; 10 mg/kg): 19.5±2.76 ^b pg/ml
- TNF-α (serum) ([4]; 10 mg/kg): 16.2±2.27 ^a pg/ml
- IFN-β (serum) ([4]; 20 mg/kg): 29.4±3.27 ^a pg/ml
- IL-1β (serum) ([4]; 20 mg/kg): 16.5±1.17 ^b pg/ml
- IL-6 (serum) ([4]; 20 mg/kg): 17.4±1.11 ^b pg/ml
- TNF-α (serum) ([4]; 20 mg/kg): 11.8±1.94 ^b pg/ml
- IFN-β (serum) ([4]; 40 mg/kg): 30.8±3.31 ^b pg/ml
- IL-1β (serum) ([4]; 40 mg/kg): 13.4±0.74 ^b pg/ml
- IL-6 (serum) ([4]; 40 mg/kg): 12.8±1.16 ^b pg/ml
- TNF-α (serum) ([4]; 40 mg/kg): 9.20±0.77 ^b pg/ml
- SI (H3N2) [2]: 27.8
- IC50 [2]: 9.4 µg/mL (≈ 43.5 µM)
- mRNA expressions of TLR7, MyD88, TRAF6 and IFN-β in lung tissue ([5]; compared with model control group, P<0.01): obviously upregulated
- NF-κB p65 protein expression in lung tissue ([5]; mouse, in vivo): downregulated
- Inhibitory rate (lung index) (influenza A virus (IAV) [6]; [7]): 27.5%
- Lung index (influenza A virus (IAV) [6]; [7]): 17.43±4.16 ^a mg/g
- Viral load (lung) (influenza A virus (IAV) [6]; [7]): 4.79±0.84 ^b ×10^6 copies
- Inhibitory rate (lung index) (influenza A virus (IAV) [6]; [8]): 58.8%
- Lung index (influenza A virus (IAV) [6]; [8]): 13.08±4.54 ^b mg/g
- Viral load (lung) (influenza A virus (IAV) [6]; [8]): 2.56±0.72 ^b ×10^6 copies
- Inhibitory rate (lung index) (influenza A virus (IAV) [6]; [9]): 74.5%
- Lung index (influenza A virus (IAV) [6]; [9]): 10.90±3.76 ^b mg/g
- Viral load (lung) (influenza A virus (IAV) [6]; [9]): 0.36±0.15 ^b ×10^6 copies
- histological damage of lung (influenza A virus (IAV) [6]; 10–40 mg/kg, H&E staining): improved

SMILES: NC(=O)c1ncn([C@@H]2O[C@H](CO)[C@@H](O)[C@H]2O)n1 [Ribavirin, reference compound]
- SI (H1N1) [1]: 8.2
- IC50 [1]: 14.2 µg/mL (≈ 58.1 µM)
- CC50 at 3 days (Cytotoxicity assay): 116 µg/mL (≈ 476 µM)
- Life prolong rate (influenza A virus (IAV) [3]; [10]): 40.5%
- MDD ± SD (mean day to death) (influenza A virus (IAV) [3]; [10]): 11.1±3.1 ^a day
- Survival rate (influenza A virus (IAV) [3]; [10]): 50.0%
- Survived/total (influenza A virus (IAV) [3]; [10]): 10/20
- IFN-β (serum) ([4]; 50 mg/kg): 23.3 ± 2.79 pg/mL
- IL-1β (serum) ([4]; 50 mg/kg): 21.6 ± 3.36 pg/mL
- IL-6 (serum) ([4]; 50 mg/kg): 18.5±5.99 ^b pg/ml
- TNF-α (serum) ([4]; 50 mg/kg): 13.4±1.54 ^b pg/ml
- SI (H3N2) [2]: 10.9
- IC50 [2]: 10.7 µg/mL (≈ 43.8 µM)
- Inhibitory rate (lung index) (influenza A virus (IAV) [6]; [10]): 61.7%
- Lung index (influenza A virus (IAV) [6]; [10]): 12.68±3.30 ^b mg/g
- Viral load (lung) (influenza A virus (IAV) [6]; [10]): 1.38±0.56 ^b ×10^6 copies
